Where a name gives a salt, the structure may show the parent alone.
Key:
[1] = target: T1, NHE3 (Homo sapiens, UniProt P48764); assay: Cell-based assay of NHE-3 activity (pre-incubation inhibition), human; conditions: human Preincubation; for pIC50 / IC50: 0-30 μM test compound
T1 construct: expressed in transfected cells
T1 sequence (P48764 26-834): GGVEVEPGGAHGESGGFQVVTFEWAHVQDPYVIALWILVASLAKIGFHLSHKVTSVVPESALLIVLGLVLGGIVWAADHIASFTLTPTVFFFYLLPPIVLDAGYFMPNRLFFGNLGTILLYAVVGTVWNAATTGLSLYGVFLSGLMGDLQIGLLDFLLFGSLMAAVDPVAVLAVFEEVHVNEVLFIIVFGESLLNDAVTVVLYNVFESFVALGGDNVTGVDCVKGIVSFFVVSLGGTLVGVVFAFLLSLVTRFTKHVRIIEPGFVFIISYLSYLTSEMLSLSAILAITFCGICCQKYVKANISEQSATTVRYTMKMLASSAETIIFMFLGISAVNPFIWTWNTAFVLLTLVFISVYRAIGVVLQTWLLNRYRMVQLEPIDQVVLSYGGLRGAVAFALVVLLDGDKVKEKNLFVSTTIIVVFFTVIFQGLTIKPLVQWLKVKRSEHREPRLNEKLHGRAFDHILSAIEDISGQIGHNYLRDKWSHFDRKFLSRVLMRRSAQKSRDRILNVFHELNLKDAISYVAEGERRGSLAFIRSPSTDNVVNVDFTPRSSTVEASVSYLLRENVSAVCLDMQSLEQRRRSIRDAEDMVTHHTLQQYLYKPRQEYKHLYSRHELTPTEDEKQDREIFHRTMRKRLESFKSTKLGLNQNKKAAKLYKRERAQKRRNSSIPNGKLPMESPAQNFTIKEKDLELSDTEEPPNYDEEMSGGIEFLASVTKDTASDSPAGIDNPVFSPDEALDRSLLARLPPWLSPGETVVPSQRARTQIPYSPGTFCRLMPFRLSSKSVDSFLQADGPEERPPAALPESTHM
T1 sequence (Q99653 2-195 partner limits assumed): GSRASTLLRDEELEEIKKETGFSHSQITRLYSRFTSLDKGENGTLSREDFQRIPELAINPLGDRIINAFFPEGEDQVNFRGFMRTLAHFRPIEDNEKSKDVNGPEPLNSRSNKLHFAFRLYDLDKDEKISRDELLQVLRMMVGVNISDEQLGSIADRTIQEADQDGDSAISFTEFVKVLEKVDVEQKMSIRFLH
Outline: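 PS120 fibroblasts stably expressing human NHE3 and NHERF2, loaded 30 min at 37 °C with 5 μM BCECF-AM in NH4Cl buffer, then acidified 10 min at room temperature in Na+-free buffer with 0–30 μM compound. Initial rate of BCECF fluorescence ratio change (FLIPR) per minute taken as Na+/H+ activity.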

[2] = target: T1, NHE3; assay: Cell-based assay of NHE-3 activity (persistent inhibition), human; conditions: human Persistence, 60 min incubation then washout
Outline: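 PS120 fibroblasts expressing human NHE3 with NHERF2 exposed to 0-30 μM compound for 60 min at RT, then washed out; cells acid-loaded by NH4Cl prepulse with BCECF-AM and Na+-free buffer. Na+-driven pH recovery started 10 min post-washout; initial rate of BCECF ratio change (FLIPR) taken as activity.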

SMILES	% inhibition [1]	pIC50 [1]	% inhibition [2]	pIC50 [2]	IC50 [1] [nM]	IC50 [2] [nM]
Cc1cc(S(=O)(=O)N[C@H]2CCN(CCOCCNC(=O)NCCCCNC(=O)NCCOCCN3CC[C@H](NS(=O)(=O)c4ccc(O[C@H]5c6cc(Cl)cc(C#N)c6C[C@@H]5N(C)C)c(C)c4)C3=O)C2=O)ccc1O[C@H]1c2cc(Cl)cc(C#N)c2C[C@@H]1N(C)C [Example 92, 1-(2-[2-[(3S)-3-[(4-[[(1S,2S)-6-Chloro-4-cyano-2-(dimethylamino)-2,3-dihydro-1H-inden-1-yl]oxy]-3-methylbenzene)sulfonamido]-2-oxopyrrolidin-1-yl]ethoxy]ethyl)-3-(4-[[(2-[2-[(3S)-3-[(4-[[(1S,2S)-6-chloro-4-cyano-2-(dimethylamino)-2,3-dihydro-1H-inden-1-yl]oxy]-3-methylbenzene)sulfonamido]-2-oxopyrrolidin-1-yl]ethoxy]ethyl)carbamoyl]amino]butyl)urea; bis(trifluoroacetic acid)]	C (>70%)	C (NHE3 pIC50 > 7)	C (>70%)	C (NHE3 pIC50 > 7)	–	–
N[C@@H]1CCCN([C@H]2Cc3c(Cl)cc(Cl)cc3[C@@H]2Oc2ccc(S(=O)(=O)N3CC[C@@H](OCCOCCNC(=O)NCCCCNC(=O)NCCOCCO[C@@H]4CCN(S(=O)(=O)c5ccc(O[C@H]6c7cc(Cl)cc(Cl)c7C[C@@H]6N6CCC[C@@H](N)C6)cc5)C4)C3)cc2)C1 [Example 93, 3-[2-(2-[[(3R)-1-[(4-[[(1S,2S)-2-[(3R)-3-Aminopiperidin-1-yl]-4,6-dichloro-2,3-dihydro-1H-inden-1-yl]oxy]benzene)sulfonyl]pyrrolidin-3-yl]oxy]ethoxy)ethyl]-1-[4-([[2-(2-[[(3R)-1-[(4-[[(1S,2S)-2-[(3R)-3-aminopiperidin-1-yl]-4,6-dichloro-2,3-dihydro-1H-inden-1-yl]oxy]benzene)sulfonyl]pyrrolidin-3-yl]oxy]ethoxy)ethyl]carbamoyl]amino)butyl]urea]	C (>70%)	–	C (>70%)	–	< 100	< 100
CC(C)[C@@H](COCCOCCNC(=O)NCCCCNC(=O)NCCOCCOC[C@@H](NS(=O)(=O)c1ccc(O[C@H]2c3cc(Cl)cc(Cl)c3C[C@@H]2N2CCC[C@@H](N)C2)cc1)C(C)C)NS(=O)(=O)c1ccc(O[C@H]2c3cc(Cl)cc(Cl)c3C[C@@H]2N2CCC[C@@H](N)C2)cc1 [Example 98, 3-(2-[2-[(2S)-2-[(4-[[(1S,2S)-2-[(3R)-3-Aminopiperidin-1-yl]-4,6-dichloro-2,3-dihydro-1H-inden-1-yl]oxy]benzene)sulfonamido]-3-methylbutoxy]ethoxy]ethyl)-1-(4-[[(2-[2-[(2S)-2-[(4-[[(1S,2S)-2-[(3R)-3-aminopiperidin-1-yl]-4,6-dichloro-2,3-dihydro-1H-inden-1-yl]oxy]benzene)sulfonamido]-3-methylbutoxy]ethoxy]ethyl)carbamoyl]amino]butyl)urea dihydrochloride]	C (>70%)	C (NHE3 pIC50 > 7)	C (>70%)	C (NHE3 pIC50 > 7)	–	–
CC(C)[C@H](COCCOCCNC(=O)NCCCCNC(=O)NCCOCCOC[C@H](NS(=O)(=O)c1ccc(O[C@H]2c3cc(Cl)cc(Cl)c3C[C@@H]2N2CCC[C@@H](N)C2)cc1)C(C)C)NS(=O)(=O)c1ccc(O[C@H]2c3cc(Cl)cc(Cl)c3C[C@@H]2N2CCC[C@@H](N)C2)cc1 [Example 99, 3-(2-[2-[(2R)-2-[(4-[[(1S,2S)-2-[(3R)-3-Aminopiperidin-1-yl]-4,6-dichloro-2,3-dihydro-1H-inden-1-yl]oxy]benzene)sulfonamido]-3-methylbutoxy]ethoxy]ethyl)-1-(4-[[(2-[2-[(2R)-2-[(4-[[(1S,2S)-2-[(3R)-3-aminopiperidin-1-yl]-4,6-dichloro-2,3-dihydro-1H-inden-1-yl]oxy]benzene)sulfonamido]-3-methylbutoxy]ethoxy]ethyl)carbamoyl]amino]butyl)urea]	C (>70%)	C (NHE3 pIC50 > 7)	C (>70%)	–	–	100 to 1000

Continued, values first:

% inhibition [1]	pIC50 [1]	% inhibition [2]	pIC50 [2]	IC50 [1] [nM]	IC50 [2] [nM]	SMILES
C (>70%)	C (NHE3 pIC50 > 7)	C (>70%)	C (NHE3 pIC50 > 7)	–	–	N[C@@H]1CCCN([C@H]2Cc3c(Cl)cc(Cl)cc3[C@@H]2Oc2ccc(S(=O)(=O)N3CC[C@H](OCCOCCNC(=O)NCCCCNC(=O)NCCOCCO[C@H]4CCN(S(=O)(=O)c5ccc(O[C@H]6c7cc(Cl)cc(Cl)c7C[C@@H]6N6CCC[C@@H](N)C6)cc5)C4)C3)cc2)C1 [Example 94, 3-[2-(2-[[(3S)-1-[(4-[[(1S,2S)-2-[(3R)-3-Aminopiperidin-1-yl]-4,6-dichloro-2,3-dihydro-1H-inden-1-yl]oxy]benzene)sulfonyl]pyrrolidin-3-yl]oxy]ethoxy)ethyl]-1-[4-([[2-(2-[[(3S)-1-[(4-[[(1S,2S)-2-[(3R)-3-aminopiperidin-1-yl]-4,6-dichloro-2,3-dihydro-1H-inden-1-yl]oxy]benzene)sulfonyl]pyrrolidin-3-yl]oxy]ethoxy)ethyl]carbamoyl]amino)butyl]urea]
C (>70%)	C (NHE3 pIC50 > 7)	C (>70%)	C (NHE3 pIC50 > 7)	–	–	N[C@@H]1CCCN([C@H]2Cc3c(Cl)cc(Cl)cc3[C@@H]2Oc2ccc(S(=O)(=O)N3CCC(OCCOCCNC(=O)NCCCCNC(=O)NCCOCCOC4CCN(S(=O)(=O)c5ccc(O[C@H]6c7cc(Cl)cc(Cl)c7C[C@@H]6N6CCC[C@@H](N)C6)cc5)CC4)CC3)cc2)C1 [Example 95, 3-[2-[2-([1-[(4-[[(1S,2S)-2-[(3R)-3-Aminopiperidin-1-yl]-4,6-dichloro-2,3-dihydro-1H-inden-1-yl]oxy]benzene)sulfonyl]piperidin-4-yl]oxy)ethoxy]ethyl]-1-[4-[([2-[2-([1-[(4-[[(1S,2S)-2-[(3R)-3-aminopiperidin-1-yl]-4,6-dichloro-2,3-dihydro-1H-inden-1-yl]oxy]benzene)sulfonyl]piperidin-4-yl]oxy)ethoxy]ethyl]carbamoyl)amino]butyl]urea]
C (>70%)	–	C (>70%)	–	< 100	< 100	C[C@@H](COCCOCCNC(=O)NCCCCNC(=O)NCCOCCOC[C@H](C)NS(=O)(=O)c1ccc(O[C@H]2c3cc(Cl)cc(Cl)c3C[C@@H]2N2CCC[C@@H](N)C2)cc1)NS(=O)(=O)c1ccc(O[C@H]2c3cc(Cl)cc(Cl)c3C[C@@H]2N2CCC[C@@H](N)C2)cc1 [Example 96, 1-(2-[2-[(2S)-2-[(4-[[(1S,2S)-2-[(3R)-3-Aminopiperidin-1-yl]-4,6-dichloro-2,3-dihydro-1H-inden-1-yl]oxy]benzene)sulfonamido]propoxy]ethoxy]ethyl)-3-(4-[[(2-[2-[(2S)-2-[(4-[[(1S,2S)-2-[(3R)-3-aminopiperidin-1-yl]-4,6-dichloro-2,3-dihydro-1H-inden-1-yl]oxy]benzene)sulfonamido]propoxy]ethoxy]ethyl)carbamoyl]amino]butyl)urea; hydrochloride]
C (>70%)	C (NHE3 pIC50 > 7)	C (>70%)	C (NHE3 pIC50 > 7)	–	–	C[C@H](COCCOCCNC(=O)NCCCCNC(=O)NCCOCCOC[C@@H](C)NS(=O)(=O)c1ccc(O[C@H]2c3cc(Cl)cc(Cl)c3C[C@@H]2N2CCC[C@@H](N)C2)cc1)NS(=O)(=O)c1ccc(O[C@H]2c3cc(Cl)cc(Cl)c3C[C@@H]2N2CCC[C@@H](N)C2)cc1 [Example 97, 3-(2-[2-[(2R)-2-[(4-[[(1S,2S)-2-[(3R)-3-Aminopiperidin-1-yl]-4,6-dichloro-2,3-dihydro-1H-inden-1-yl]oxy]benzene)sulfonamido]propoxy]ethoxy]ethyl)-1-(4-[[(2-[2-[(2R)-2-[(4-[[(1S,2S)-2-[(3R)-3-aminopiperidin-1-yl]-4,6-dichloro-2,3-dihydro-1H-inden-1-yl]oxy]benzene)sulfonamido]propoxy]ethoxy]ethyl)carbamoyl]amino]butyl)urea]

Source: US11242337B2, “Compounds useful for treating gastrointestinal tract disorders” (Ardelyx, Inc., priority 2017, dated 2022)
